Reference: patent US10729749B2, “Neurodegenerative disorders” (priority 2014, dated 2020)
Ends that are not written are not given here.

Experiments:
Format in all cases: cell-based
PC12 cells [1] = test: Acetylcholinesterase activity assay (AChE release from PC12 cells, Ellman reagent); settings: % AChE release compared to untreated control
Protocol: AChE activity was measured using the Ellman reagent that measures the presence of thiol groups as a result of AChE activity. Cells were plated the day before the experiment as for the cell viability assay. […] The Ellman reagent was prepared as a mixture of the 3 solutions in a ratio 33(A):3(B):4(C). Absorbance measurements were taken at regular intervals (3, 10, 30 and 60 mins) across experiments at 405 nm.

[2] = Cell viability assay (Cell Counting Kit-8); settings: % PC12 cell viability compared to untreated control;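 also: PC12 cells in 96-well plates, WST-8 turned into formazan by cellular dehydrogenases, absorbance read at 450 nm after 2 h with the reagent, signal proportional to living cell number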
From the text: A Cell Counting Kit-8 (CCK-8) was used as an improvement of the SRB technique used before. By utilizing the highly water-soluble tetrazolium salt WST-8, CCK-8 produces a water-soluble formazan dye upon reduction in the presence of an electron carrier. WST-8 is reduced by dehydrogenases in cells to give a yellow colored product (formazan), which is soluble in the tissue culture medium. The amount of the formazan dye generated by the activity of dehydrogenases in cells is directly proportional to the number of living cells. PC12 cells are plated in 200 μl of complete growth medium the day before the experiment in 96 well plates. […] Subsequently, 100 μl of growth medium is removed and 10 μl of CCK-8 (Cell Counting Kit-8) solution is added. The plate is incubated for 2 hours in the incubator and then placed in the absorbance plate reader. The absorbance must be measured at 450 nm.

PC12 cells [3] = test: Calcium fluorometry (Fluo-8, acetylcholine-induced calcium influx); parameters: Calcium: scale not given here; settings: for Calcium: calcium influx value, control based on acetylcholine alone; for dose-dependent effect on calcium potentiation against T30: dose-dependent experiments, FIGS. 8 and 9
From the text: A final criterion used to determine active peptides is the amount of calcium influx into PC12 cells caused by the peptide. The calcium influx value can be calculated as described in the methods section. The calcium value corresponds to the result from the experiment when applying T30 or Aβ alone or in conjunction with the small peptides. The control value for these experiments is based on the calcium influx induced by acetylcholine alone. Preferably, the peptide, derivative or analogue thereof has a calcium influx value of less than 120, and more preferably a value of 97-120.
PC12 cells are plated in 200 μl of complete growth medium the day before the experiment in 96 well plates. On the day of the experiment, the Fluo-8 solution (Abcam) is prepared (as per provider protocol). Subsequently, 100 μl of growth medium is removed and 100 μl of Fluo-8 solution is added. Treatments with T30 or Aβ in conjunction with NBP-14 or small peptides are added and incubated for 30 minutes in the incubator and 30 minutes room temperature.
After 1 hour, the plate is placed in the fluorescence plate reader (Fluostar). Before reading the fluorescence, acetylcholine (ACh) 100 μM is prepared and placed in the Fluostar injector. For each well, the reading will be formed by a basal fluorescence followed by acetylcholine injection that will induce an increase of calcium via nicotinic receptors. The effects of the peptides are then evaluated.

PC12 cells [4] = test: Value coefficient (AChE release vs PC12 cell viability) and filter selection; settings: for Value AChE/Viability: 1.0 to 1.1 = protective, control = 1; for neuroprotective agent against T30 when all four filters are taken into consideration / neuroprotective agent against Aβ when all four filters are taken into consideration: filters: value coefficient, in silico binding, calcium influx, peptide size
From the text: AChE release vs PC12 cell viability (for which there is a significant negative correlation); • 2. In silico binding to the allosteric site of the α7 nicotinic-receptor; • 3. Calcium influx into PC12 cells; and • 4. Peptide size.

[5] = T30 5 μM + small peptide 0.5 μM

Substance	AChE (PC12 cells [1]; [5]) [%]	viability [2, 5] [%]	Calcium (PC12 cells [3]; T30 + small peptide)	Value AChE/Viability (PC12 cells [4]; [5])	neuroprotective agent against T30 when all four filters are taken into consideration (PC12 cells [4])	AChE (PC12 cells [1]; Aβ 5 μM + small peptide 0.5 μM) [%]	viability ([2]; Aβ 5 μM + small peptide 0.5 μM) [%]	Calcium (PC12 cells [3]; Aβ + small peptide)	Value AChE/Viability (PC12 cells [4]; Aβ 5 μM + small peptide 0.5 μM)	dose-dependent effect on calcium potentiation against T30 (PC12 cells [3])	neuroprotective agent against Aβ when all four filters are taken into consideration (PC12 cells [4])
AEFHRWSS [NBP-804]	107.69	108	106.7	1	neuroprotective agents against T30						
AEFHRWSSYMV [NBP-1104]	102.36	111	119.82	1							
EFHRWSS [NBP-705, EFHRWSS]	94.07	91	111.98	1.03	neuroprotective agents against T30						
EFHRWSSYM [NBP-905]						106.42	97.2	194.22	1.09		
EFHRWSSYMVHW [NBP-1205]	95.79	89.4	132.71	1.07							
EFHRWSSYMVHWKA [NBP-1405]	91.57	83.9	100.59	1.09							
FHRWSS [NBP-606]	107.88	103	131.85	1.05							
FHRWSSYMVHWK [NBP-1206]						96.92	93.6	127.27	1.04		
FHRWSSYMVHWKAE [NBP-1406]	92.78	86.6	101.06	1.07							
HRWSSY [NBP-607]						97.53	94.9	168.97	1.03		
HRWSSYM [NBP-707]	98.35	98.5	120.17	1							
HRWSSYMVHWK [NBP-1107]	93.13	93.1	95.43	1							
HRWSSYMVHWKA [NBP-1207]						94.30	87.4	261.22	1.08		
HRWSSYMVHWKAE [NBP-1307]						94.29	92.5	218.25	1.02		
HRWSSYMVHWKAEF [NBP-1407]	94.49	90.5	111.71	1.04							
HWKAEF [NBP-601, HWKAEF]	100.99	93.2	118.37	1.08	neuroprotective agents against T30					protect against T30 effects	
HWKAEFHR [NBP-801]						108.63	102	168.66	1.06		
HWKAEFHRWSS [NBP-1101]	91.9	91.9	86.58	1							
HWKAEFHRWSSY [NBP-1201]						94.84	93.1	114.35	1.02		
KAEFH [NBP-503]						117.63	110	195.67	1.07		
KAEFHRWSSYMV [NBP-1203]						99.63	95.5	192.38	1.04		
KAEFHRWSSYMVH [NBP-1303]						96.73	91.2	106.33	1.06		
MVHWKA [NBP-613, MVHWKA]	103.45	103	102.29	1	neuroprotective agents against T30					protect against T30 effects	
MVHWKAEFHR [NBP-1013]	91.79	85.3	181.12	1.08							
MVHWKAEFHRWS [NBP-1213]						93.73	90.8	146.97	1.03		

Substance	AChE (PC12 cells [1]; [5]) [%]	viability [2, 5] [%]	Calcium (PC12 cells [3]; T30 + small peptide)	Value AChE/Viability (PC12 cells [4]; [5])	neuroprotective agent against T30 when all four filters are taken into consideration (PC12 cells [4])	AChE (PC12 cells [1]; Aβ 5 μM + small peptide 0.5 μM) [%]	viability ([2]; Aβ 5 μM + small peptide 0.5 μM) [%]	Calcium (PC12 cells [3]; Aβ + small peptide)	Value AChE/Viability (PC12 cells [4]; Aβ 5 μM + small peptide 0.5 μM)	dose-dependent effect on calcium potentiation against T30 (PC12 cells [3])	neuroprotective agent against Aβ when all four filters are taken into consideration (PC12 cells [4])
MVHWKAEFHRWSS [NBP-1313]	93.64	89	118.94	1.05							
MVHWKAEFHRWSSY [NBP-1413]						99.85	95.2	125.28	1.05		
RWSSY [NBP-508]						106.06	97.6	120.72	1.09		
RWSSYMV [NBP-708, RWSSYMV]	97.79	97.8	97.04	1	neuroprotective agents against T30						
RWSSYMVHWKA [NBP-1108]						82.74	77.7	392.11	1.06		
RWSSYMVHWKAEFH [NBP-1408]	93.64	93.6	80.25	1							
SSYMV [NBP-510]						104.25	101	167.56	1.03		
SSYMVHW [NBP-710, SSYMVHW]						108.85	109	114.33	1		agents against Aβ
SSYMVHWK [NBP-810]						96.22	95.3	156.05	1.01		
SSYMVHWKAEFH [NBP-1210]						98.18	97.5	127.83	1.01		
SSYMVHWKAEFHRW [NBP-1410]	93.51	93.5	120.09	1		93.51	93.5	160.54	1		
SYMVHW [NBP-611, SYMVHW]						88.60	82.2	114.39	1.08		agents against Aβ
SYMVHWK [NBP-711]						108.57	106	148.17	1.02		
SYMVHWKAEF [NBP-1011]						84.13	81.7	161.87	1.03		
SYMVHWKAEFHRW [NBP-1311]						93.51	86.1	137.63	1.09		
VHWKAE [NBP-614]						85.05	77.7	124.34	1.09		
VHWKAEFHRWSS [NBP-1214]						89.28	85.5	217.64	1.04		
VHWKAEFHRWSSY [NBP-1314]						104.08	97.9	130.85	1.06		
WKAEFH [NBP-602]	112.32	108	169.86	1.04							
WKAEFHRWSSY [NBP-1102]	104.31	104	89.28	1							
WKAEFHRWSSYMVH [NBP-1402]						99.85	91.6	127.81	1.09		
WSSYM [NBP-509]						106.20	102	363.48	1.04		
WSSYMVH [NBP-709]						108.99	102	288.61	1.07		
WSSYMVHWKA [NBP-1009]						101.23	97.5	255.80	1.04		
